In patent publication US12486273B2 (Hoffmann-La Roche Inc., priority 2019, dated 2025):

Key:
Format in all cases: cell-based
human TLR7 = human TLR7 (Homo sapiens (Human), UniProt Q9NYK1); assay: HEK293-Blue-hTLR-7 cells assay; details: HEK293-Blue-hTLR7 cells, R848 stimulation, 20 hrs, SEAP reporter; read-out: HEK/hTLR7 IC50
From the text: HEK293-BLUE-hTLR-7 CELLS ASSAY:
(§1) A stable HEK293-Blue-hTLR-7 cell line was purchased from InvivoGen (Cat. #: hkb-htlr7, San Diego, California, USA). These cells were originally designed for studying the stimulation of human TLR7 by monitoring the activation of NF-κB. A SEAP (secreted embryonic alkaline phosphatase) reporter gene was placed under the control of the IFN-β minimal promoter fused to five NF-κB and AP-1-binding sites. The SEAP was induced by activating NF-κB and AP-1 via stimulating HEK-Blue hTLR7 cells with TLR7 ligands. Therefore the reporter expression was declined by TLR7 antagonist under the stimulation of a ligand, such as R848 (Resiquimod), for incubation of 20 hrs. The cell culture supernatant SEAP reporter activity was determined using QUANTI-Blue™ kit (Cat. #: rep-qb1, Invivogen, San Diego, Ca, USA) at a wavelength of 640 nm, a detection medium that turns purple or blue in the presence of alkaline phosphatase.
(§2) HEK293-Blue-hTLR7 cells were incubated at a density of 250,000˜450,000 cells/mL in a volume of 170 μL in a 96-well plate in Dulbecco's Modified Eagle's medium (DMEM) containing 4.5 g/L glucose, 50 U/mL penicillin, […], […], 2 mM L-glutamine, 10% (v/v) heat-inactivated fetal bovine serum with addition of 20 μL test compound in a serial dilution in the presence of final DMSO at 1% and 10 μL of 20 μM R848 in above DMEM, perform incubation under 37° C. in a CO2 incubator for 20 hrs. Then 20 μL of the supernatant from each well was incubated with 180 μL Quanti-blue substrate solution at 37° C. for 2 hrs and the absorbance was read at 620-655 nm using a spectrophotometer. The signaling pathway that TLR7 activation leads to downstream NF-κB activation has been widely accepted, and therefore similar reporter assay was modified for evaluating TLR7 antagonist.

human TLR8 = human TLR8 (Homo sapiens (Human), UniProt Q9NR97); assay: HEK293-Blue-hTLR-8 cells assay; details: HEK293-Blue-hTLR8 cells, R848 stimulation, 20 hrs, SEAP reporter; read-out: HEK/hTLR8 IC50
human TLR8, sequence (Q9NR97 27-1041): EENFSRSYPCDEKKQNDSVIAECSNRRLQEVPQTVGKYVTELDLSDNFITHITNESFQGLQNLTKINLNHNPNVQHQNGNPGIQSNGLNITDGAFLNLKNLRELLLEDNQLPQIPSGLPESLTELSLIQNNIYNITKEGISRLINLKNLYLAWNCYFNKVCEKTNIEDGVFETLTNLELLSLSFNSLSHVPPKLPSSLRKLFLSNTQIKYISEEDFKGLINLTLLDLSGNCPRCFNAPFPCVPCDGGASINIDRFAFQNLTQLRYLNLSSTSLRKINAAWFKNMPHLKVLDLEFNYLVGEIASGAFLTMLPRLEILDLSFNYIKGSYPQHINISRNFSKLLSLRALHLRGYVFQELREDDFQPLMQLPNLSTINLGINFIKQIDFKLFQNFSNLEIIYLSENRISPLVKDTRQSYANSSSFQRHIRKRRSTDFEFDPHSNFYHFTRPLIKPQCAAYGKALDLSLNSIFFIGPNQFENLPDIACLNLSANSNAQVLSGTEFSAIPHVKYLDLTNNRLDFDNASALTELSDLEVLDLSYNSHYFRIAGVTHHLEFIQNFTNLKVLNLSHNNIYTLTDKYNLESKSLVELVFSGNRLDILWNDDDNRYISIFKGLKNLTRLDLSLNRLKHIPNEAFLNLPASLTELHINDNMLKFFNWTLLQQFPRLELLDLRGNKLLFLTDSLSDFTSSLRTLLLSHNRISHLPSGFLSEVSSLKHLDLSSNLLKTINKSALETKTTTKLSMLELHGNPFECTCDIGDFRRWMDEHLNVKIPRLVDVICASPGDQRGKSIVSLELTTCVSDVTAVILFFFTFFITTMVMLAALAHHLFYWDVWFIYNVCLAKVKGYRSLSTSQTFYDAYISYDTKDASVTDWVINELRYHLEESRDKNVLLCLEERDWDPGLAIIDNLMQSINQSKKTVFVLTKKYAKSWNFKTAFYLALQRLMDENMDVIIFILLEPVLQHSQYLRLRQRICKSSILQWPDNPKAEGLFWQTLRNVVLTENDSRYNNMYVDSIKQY
From the text: HEK293-Blue-hTLR-8 Cells Assay:
as §1, with “HEK293-Blue-hTLR-8” for “HEK293-Blue-hTLR-7”, “hkb-htlr8,” for “hkb-htlr7,”, “TLR8” for “TLR7”, “hTLR8” for “hTLR7”, “R848,” for “R848 (Resiquimod),”, “rep-Qb1,” for “rep-qb1,”
HEK293-Blue-hTLR8 cells were incubated at a density of 250,000-450,000 cells/mL in a volume of 170 μL in a 96-well plate in Dulbecco's Modified Eagle's medium (DMEM) containing 4.5 g/L glucose, 50 U/mL penicillin, […], […], 2 mM L-glutamine, 10% (v/v) heat-inactivated fetal bovine serum with addition of 20 μL test compound in a serial dilution in the presence of final DMSO at 1% and 10 μL of 60 μM R848 in above DMEM, perform incubation under 37° C. in a CO2 incubator for 20 hrs. Then 20 μL of the supernatant from each well was incubated with 180 μL Quanti-blue substrate solution at 37° C. for […] and the absorbance was read at 620˜655 nm using a spectrophotometer. The signaling pathway that TLR8 activation leads to downstream NF-κB activation has been widely accepted, and therefore similar reporter assay was modified for evaluating TLR8 antagonist.

human TLR9 = human TLR9 (Homo sapiens (Human), UniProt Q9NR96); assay: HEK293-Blue-hTLR-9 cells assay; details: HEK293-Blue-hTLR9 cells, ODN2006 stimulation, 20 hrs, SEAP reporter; read-out: HEK/hTLR9 IC50
human TLR9, sequence (Q9NR96 26-1032): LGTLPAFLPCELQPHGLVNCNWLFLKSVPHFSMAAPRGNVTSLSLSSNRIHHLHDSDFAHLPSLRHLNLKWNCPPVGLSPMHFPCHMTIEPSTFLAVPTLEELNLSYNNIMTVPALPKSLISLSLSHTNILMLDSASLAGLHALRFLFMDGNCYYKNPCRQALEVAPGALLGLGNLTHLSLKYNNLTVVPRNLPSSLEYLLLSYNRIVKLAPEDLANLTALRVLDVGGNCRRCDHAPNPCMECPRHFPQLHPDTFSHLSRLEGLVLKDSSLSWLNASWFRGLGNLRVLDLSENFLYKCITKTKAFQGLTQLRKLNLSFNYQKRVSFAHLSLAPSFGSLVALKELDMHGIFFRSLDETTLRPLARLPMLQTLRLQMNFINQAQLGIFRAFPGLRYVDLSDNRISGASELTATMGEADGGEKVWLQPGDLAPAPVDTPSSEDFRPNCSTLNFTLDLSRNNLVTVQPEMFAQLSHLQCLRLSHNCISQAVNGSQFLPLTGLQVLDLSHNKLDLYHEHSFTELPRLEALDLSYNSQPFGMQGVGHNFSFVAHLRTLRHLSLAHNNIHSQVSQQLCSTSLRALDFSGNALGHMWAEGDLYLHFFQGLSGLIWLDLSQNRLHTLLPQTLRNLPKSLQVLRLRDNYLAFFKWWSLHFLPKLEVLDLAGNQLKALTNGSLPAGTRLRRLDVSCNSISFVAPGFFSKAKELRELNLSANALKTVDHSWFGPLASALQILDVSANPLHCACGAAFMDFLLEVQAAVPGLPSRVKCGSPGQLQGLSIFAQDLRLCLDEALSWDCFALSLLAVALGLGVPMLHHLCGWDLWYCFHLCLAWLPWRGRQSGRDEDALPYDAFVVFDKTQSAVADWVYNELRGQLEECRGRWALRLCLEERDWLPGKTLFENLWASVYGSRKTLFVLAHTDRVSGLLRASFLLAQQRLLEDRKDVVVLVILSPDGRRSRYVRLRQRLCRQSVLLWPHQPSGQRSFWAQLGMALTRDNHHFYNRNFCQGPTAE
From the text: HEK293-Blue-hTLR-9 Cells Assay:
A stable HEK293-Blue-hTLR-9 cell line was purchased from InvivoGen (Cat. #: hkb-htlr9, San Diego, California, USA). These cells were originally designed for studying the stimulation of human TLR9 by monitoring the activation of NF-κB. A SEAP (secreted embryonic alkaline phosphatase) reporter gene was placed under the control of the IFN-β minimal promoter fused to five NF-κB and AP-1-binding sites. The SEAP was induced by activating NF-κB and AP-via stimulating HEK-Blue hTLR9 cells with TLR9 ligands. Therefore the reporter expression was declined by TLR9 antagonist under the stimulation of a ligand, such as ODN2006 (Cat. #: tlrl-2006-1, Invivogen, San Diego, California, USA), for incubation of 20 hrs. The cell culture supernatant SEAP reporter activity was determined using QUANTI-Blue™ kit (Cat. #: rep-qb1, Invivogen, San Diego, California, USA) at a wavelength of 640 nm, a detection medium that turns purple or blue in the presence of alkaline phosphatase.
as §2, with “HEK293-Blue-hTLR9 cells” for “HEK293-Blue-hTLR7 cells”, “μM ODN2006” for “μM R848”, “2 h” for “2 hrs”, “that TLR9” for “that TLR7”, “evaluating TLR9” for “evaluating TLR7”

human TLR7, sequence (Q9NYK1 27-1049): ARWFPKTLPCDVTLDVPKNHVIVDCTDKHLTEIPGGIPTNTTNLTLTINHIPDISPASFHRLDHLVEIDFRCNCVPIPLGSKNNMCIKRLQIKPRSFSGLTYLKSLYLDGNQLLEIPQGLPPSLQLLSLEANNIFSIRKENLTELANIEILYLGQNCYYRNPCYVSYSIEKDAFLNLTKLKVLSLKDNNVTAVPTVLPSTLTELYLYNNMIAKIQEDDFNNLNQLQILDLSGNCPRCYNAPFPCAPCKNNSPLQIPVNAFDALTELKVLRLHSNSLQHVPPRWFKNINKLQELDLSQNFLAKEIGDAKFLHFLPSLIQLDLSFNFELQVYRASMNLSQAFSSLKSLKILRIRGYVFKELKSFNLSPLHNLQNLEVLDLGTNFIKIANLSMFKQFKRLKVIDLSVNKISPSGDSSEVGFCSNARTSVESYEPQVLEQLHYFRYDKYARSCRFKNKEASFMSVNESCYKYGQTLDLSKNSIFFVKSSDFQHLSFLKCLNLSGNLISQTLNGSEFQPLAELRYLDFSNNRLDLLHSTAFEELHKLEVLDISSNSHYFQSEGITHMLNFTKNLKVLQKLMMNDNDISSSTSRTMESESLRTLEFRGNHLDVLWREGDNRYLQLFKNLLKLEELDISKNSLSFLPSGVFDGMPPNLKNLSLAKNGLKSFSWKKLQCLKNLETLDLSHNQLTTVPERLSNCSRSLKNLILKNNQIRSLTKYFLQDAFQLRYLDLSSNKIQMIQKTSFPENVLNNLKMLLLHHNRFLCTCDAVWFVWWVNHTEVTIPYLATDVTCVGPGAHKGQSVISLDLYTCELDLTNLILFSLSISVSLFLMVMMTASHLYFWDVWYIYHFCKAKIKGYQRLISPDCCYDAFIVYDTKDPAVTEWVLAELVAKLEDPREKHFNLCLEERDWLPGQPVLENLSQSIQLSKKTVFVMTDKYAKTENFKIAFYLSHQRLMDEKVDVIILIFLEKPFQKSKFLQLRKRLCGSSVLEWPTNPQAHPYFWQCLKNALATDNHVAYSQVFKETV

| SMILES | IC50 (human TLR7) [nM] | IC50 (human TLR8) [nM] | IC50 (human TLR9) [nM] |
| --- | --- | --- | --- |
| C[C@@H]1CN(c2ccc(C#N)c3ncccc23)C[C@@H]2CC(N3CCN(c4cc5c(cn4)CCNC5)CC3)CN21 (stereo in doubt) [Example 13, 5-[(4R,7R,8aS)-4-methyl-7-[4-(5,6,7,8-tetrahydro-2,6-naphthyridin-3-yl)piperazin-1-yl]-3,4,6,7,8,8a-hexahydro-1H-pyrrolo[1,2-a]pyrazin-2-yl]quinoline-8-carbonitrile] | 14.9 | 8.2 | 49 |
| C[C@@H]1CN(c2ccc(C#N)c3ncccc23)C[C@@H]2C[C@@H](Nc3ccc4c(n3)CCN(C)C4)CN21 [Example 4, 5-[(4R,7R,8aS)-4-methyl-7-[(6-methyl-7,8-dihydro-5H-1,6-naphthyridin-2-yl)amino]-3,4,6,7,8,8a-hexahydro-1H-pyrrolo[1,2-a]pyrazin-2-yl]quinoline-8-carbonitrile] | 21.7 | 6.3 | 147 |
| C[C@@H]1CN(c2ccc(C#N)c3ncccc23)C[C@@H]2C[C@@H](N(C)c3ccc4c(n3)CCNC4)CN21 [Example 5, 5-[(4R,7R,8aS)-4-methyl-7-[methyl(5,6,7,8-tetrahydro-1,6-naphthyridin-2-yl)amino]-3,4,6,7,8,8a-hexahydro-1H-pyrrolo[1,2-a]pyrazin-2-yl]quinoline-8-carbonitrile] | 16.9 | 2.9 | 78.1 |
| C[C@@H]1CN(c2ccc(C#N)c3ncccc23)C[C@@H]2C[C@@H](Nc3ncc4c(n3)CCNC4)CN21 [Example 6, 5-[(4R,7R,8aS)-4-methyl-7-(5,6,7,8-tetrahydropyrido[4,3-d]pyrimidin-2-ylamino)-3,4,6,7,8,8a-hexahydro-1H-pyrrolo[1,2-a]pyrazin-2-yl]quinoline-8-carbonitrile] | 18.8 | 12.9 | 157 |
| C[C@@H]1CN(c2ccc(C#N)c3ncccc23)C[C@@H]2C[C@@H](Nc3ccc4c(n3)CN[C@@H]4C)CN21 [Example 7A, 5-[(4R,7R,8aS)-4-methyl-7-[[(5R)-5-methyl-6,7-dihydro-5H-pyrrolo[3,4-b]pyridin-2-yl]amino]-3,4,6,7,8,8a-hexahydro-1H-pyrrolo[1,2-a]pyrazin-2-yl]quinoline-8-carbonitrile] | 17.7 | 9 | 53.5 |
| C[C@@H]1NCc2nc(N[C@@H]3C[C@H]4CN(c5ccc(C#N)c6ncccc56)C[C@@H](C)N4C3)ccc21 [Example 7B, 5-[(4R,7R,8aS)-4-methyl-7-[[(5S)-5-methyl-6,7-dihydro-5H-pyrrolo[3,4-b]pyridin-2-yl]amino]-3,4,6,7,8,8a-hexahydro-1H-pyrrolo[1,2-a]pyrazin-2-yl]quinoline-8-carbonitrile] | 29.8 | 11.3 | 56.5 |
| C[C@@H]1CN(c2ccc(C#N)c3ncccc23)C[C@@H]2C[C@@H](Nc3ccc4c(n3)C[C@H](C)NC4)CN21 [Example 8A, 5-[(4R,7R,8aS)-4-methyl-7-[[(7S)-7-methyl-5,6,7,8-tetrahydro-1,6-naphthyridin-2-yl]amino]-3,4,6,7,8,8a-hexahydro-1H-pyrrolo[1,2-a]pyrazin-2-yl]quinoline-8-carbonitrile] | 11.1 | 3.6 | 63.1 |
| C[C@@H]1Cc2nc(N[C@@H]3C[C@H]4CN(c5ccc(C#N)c6ncccc56)C[C@@H](C)N4C3)ccc2CN1 [Example 8B, 5-[(4R,7R,8aS)-4-methyl-7-[[(7R)-7-methyl-5,6,7,8-tetrahydro-1,6-naphthyridin-2-yl]amino]-3,4,6,7,8,8a-hexahydro-1H-pyrrolo[1,2-a]pyrazin-2-yl]quinoline-8-carbonitrile] | 14.7 | 7.5 | 89.4 |
| C[C@@H]1CN(c2ccc(C#N)c3ncccc23)C[C@@H]2C[C@H](N3CCc4cc(N5CCNCC5)ccc4C3)CN21 [Example 10, 5-[(4R,7S,8aS)-4-methyl-7-(6-piperazin-1-yl-3,4-dihydro-1H-isoquinolin-2-yl)-3,4,6,7,8,8a-hexahydro-1H-pyrrolo[1,2-a]pyrazin-2-yl]quinoline-8-carbonitrile] | 30.1 | 24.9 | 81.1 |
| CO[C@@H]1CN(c2ccc3c(n2)CCN([C@H]2C[C@H]4CN(c5ccc(C#N)c6ncccc56)C[C@@H](C)N4C2)C3)C[C@H]1N [Example 11, 5-[(4R,7S,8aS)-7-[2-[(3R,4R)-3-amino-4-methoxy-pyrrolidin-1-yl]-7,8-dihydro-5H-1,6-naphthyridin-6-yl]-4-methyl-3,4,6,7,8,8a-hexahydro-1H-pyrrolo[1,2-a]pyrazin-2-yl]quinoline-8-carbonitrile] | 23.4 | 8.5 | 59.2 |
| CO[C@@H]1CN(c2cc3c(cn2)CCN([C@H]2C[C@H]4CN(c5ccc(C#N)c6ncccc56)C[C@@H](C)N4C2)C3)C[C@H]1N [Example 12, 5-[(4R,7S,8aS)-7-[7-[(3R,4R)-3-amino-4-methoxy-pyrrolidin-1-yl]-3,4-dihydro-1H-2,6-naphthyridin-2-yl]-4-methyl-3,4,6,7,8,8a-hexahydro-1H-pyrrolo[1,2-a]pyrazin-2-yl]quinoline-8-carbonitrile] | 45.1 | 17.2 | 108 |
| C[C@@H]1CN(c2ccc(C#N)c3ncccc23)C[C@@H]2CC(Oc3ccc4c(n3)CCNC4)CN21 (stereo partly drawn) [Example 14, 5-[(4R,8aS)-4-methyl-7-(5,6,7,8-tetrahydro-1,6-naphthyridin-2-yloxy)-3,4,6,7,8,8a-hexahydro-1H-pyrrolo[1,2-a]pyrazin-2-yl]quinoline-8-carbonitrile] | 16.2 | 4 | 247 |
